Results: US8124610B2, “Sodium channel inhibitors” (Icagen Inc., priority 2007, dated 2012)
Like-named read-outs stand apart in the source and are kept apart here.

Tests used:
hSCN3A = molecular target: T1, hSCN3A (Homo sapiens, UniProt Q9NY46); test: Whole-cell patch-clamp electrophysiology (conventional or PatchXpress), HEK cells expressing hSCN3A, estimated IC-50; assay type: cell-based; details: read-out: SCN3A EIC-50
T1 construct: expressed in transfected cells
In short: (§1)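 Current through each channel was evoked by a 20 ms step to 0 mV following an 8 s conditioning prepulse at the cell's own half-inactivation voltage. Recordings used HEK lines stably expressing the channel, conventional or PatchXpress patch clamp, room temperature, pH 7.4 bath; inhibition taken as pre/post-compound amplitude change.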

hSCN9A = molecular target: T2, hSCN9A (Homo sapiens, UniProt Q15858); test: Whole-cell patch-clamp electrophysiology (conventional or PatchXpress), HEK cells expressing hSCN9A, estimated IC-50; assay type: cell-based; details: read-out: SCN9A EIC-50
T2 construct: expressed in transfected cells
In short: as §1

[1] = estimated IC-50, HEK cells expressing hSCN3A, class symbols or bounds
[2] = estimated IC-50, HEK cells expressing hSCN9A, class symbols or bounds
[3] = Table V, estimated IC-50 from single point electrophysiology, cells clamped at V1/2
[4] = commercial compounds (second Table VI), estimated IC-50 from single point electrophysiology

T2 sequence (Q15858 whole entry): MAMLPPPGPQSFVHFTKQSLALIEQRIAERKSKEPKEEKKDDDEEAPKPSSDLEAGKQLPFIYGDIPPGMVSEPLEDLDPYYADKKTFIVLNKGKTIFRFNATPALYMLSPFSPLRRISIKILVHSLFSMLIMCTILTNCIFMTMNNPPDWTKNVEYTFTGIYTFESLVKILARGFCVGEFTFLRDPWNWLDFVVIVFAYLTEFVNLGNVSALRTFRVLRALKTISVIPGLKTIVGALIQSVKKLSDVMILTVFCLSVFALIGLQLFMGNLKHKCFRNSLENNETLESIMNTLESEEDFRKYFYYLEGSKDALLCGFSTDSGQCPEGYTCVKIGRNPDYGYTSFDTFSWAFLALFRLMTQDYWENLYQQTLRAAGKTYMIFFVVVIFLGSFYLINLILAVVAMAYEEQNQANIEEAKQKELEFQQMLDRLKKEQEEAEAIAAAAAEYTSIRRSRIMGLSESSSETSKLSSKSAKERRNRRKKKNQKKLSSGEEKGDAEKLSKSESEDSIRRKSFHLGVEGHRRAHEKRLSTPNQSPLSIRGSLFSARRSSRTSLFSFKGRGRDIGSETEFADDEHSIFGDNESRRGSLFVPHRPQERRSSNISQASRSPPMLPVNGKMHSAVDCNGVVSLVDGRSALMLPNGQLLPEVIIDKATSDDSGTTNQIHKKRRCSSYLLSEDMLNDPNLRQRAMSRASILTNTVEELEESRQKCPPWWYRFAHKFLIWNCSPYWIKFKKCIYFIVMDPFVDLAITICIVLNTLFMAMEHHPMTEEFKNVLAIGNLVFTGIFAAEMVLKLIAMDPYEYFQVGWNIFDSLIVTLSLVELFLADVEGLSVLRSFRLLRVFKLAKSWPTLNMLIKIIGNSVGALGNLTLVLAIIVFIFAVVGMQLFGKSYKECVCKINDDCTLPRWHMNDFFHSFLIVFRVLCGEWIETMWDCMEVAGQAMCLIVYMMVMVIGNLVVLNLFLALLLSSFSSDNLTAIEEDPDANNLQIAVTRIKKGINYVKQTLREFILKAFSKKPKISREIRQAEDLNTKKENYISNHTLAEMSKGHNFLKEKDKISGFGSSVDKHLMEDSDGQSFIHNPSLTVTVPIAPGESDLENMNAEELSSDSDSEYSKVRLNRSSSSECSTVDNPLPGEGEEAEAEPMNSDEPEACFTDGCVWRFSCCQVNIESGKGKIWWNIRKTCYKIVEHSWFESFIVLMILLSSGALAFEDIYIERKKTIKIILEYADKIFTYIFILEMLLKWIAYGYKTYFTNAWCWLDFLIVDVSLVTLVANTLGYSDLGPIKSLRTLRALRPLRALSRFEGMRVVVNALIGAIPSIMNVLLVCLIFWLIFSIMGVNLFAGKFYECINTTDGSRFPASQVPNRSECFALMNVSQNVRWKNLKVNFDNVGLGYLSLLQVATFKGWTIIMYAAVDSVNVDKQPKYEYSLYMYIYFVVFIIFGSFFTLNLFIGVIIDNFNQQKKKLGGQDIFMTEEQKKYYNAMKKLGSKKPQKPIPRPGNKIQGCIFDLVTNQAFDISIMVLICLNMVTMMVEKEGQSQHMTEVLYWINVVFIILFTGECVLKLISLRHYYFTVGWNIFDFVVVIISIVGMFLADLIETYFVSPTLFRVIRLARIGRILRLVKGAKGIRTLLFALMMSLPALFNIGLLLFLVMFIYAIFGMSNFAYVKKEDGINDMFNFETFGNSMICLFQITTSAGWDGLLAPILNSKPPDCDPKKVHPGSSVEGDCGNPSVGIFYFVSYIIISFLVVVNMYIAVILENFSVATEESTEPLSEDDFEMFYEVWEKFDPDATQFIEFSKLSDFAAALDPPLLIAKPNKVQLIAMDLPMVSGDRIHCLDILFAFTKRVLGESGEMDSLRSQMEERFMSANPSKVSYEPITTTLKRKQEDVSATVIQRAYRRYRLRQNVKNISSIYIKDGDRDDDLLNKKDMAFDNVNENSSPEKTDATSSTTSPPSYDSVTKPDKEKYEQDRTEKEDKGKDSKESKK
T1 sequence (Q9NY46 whole entry): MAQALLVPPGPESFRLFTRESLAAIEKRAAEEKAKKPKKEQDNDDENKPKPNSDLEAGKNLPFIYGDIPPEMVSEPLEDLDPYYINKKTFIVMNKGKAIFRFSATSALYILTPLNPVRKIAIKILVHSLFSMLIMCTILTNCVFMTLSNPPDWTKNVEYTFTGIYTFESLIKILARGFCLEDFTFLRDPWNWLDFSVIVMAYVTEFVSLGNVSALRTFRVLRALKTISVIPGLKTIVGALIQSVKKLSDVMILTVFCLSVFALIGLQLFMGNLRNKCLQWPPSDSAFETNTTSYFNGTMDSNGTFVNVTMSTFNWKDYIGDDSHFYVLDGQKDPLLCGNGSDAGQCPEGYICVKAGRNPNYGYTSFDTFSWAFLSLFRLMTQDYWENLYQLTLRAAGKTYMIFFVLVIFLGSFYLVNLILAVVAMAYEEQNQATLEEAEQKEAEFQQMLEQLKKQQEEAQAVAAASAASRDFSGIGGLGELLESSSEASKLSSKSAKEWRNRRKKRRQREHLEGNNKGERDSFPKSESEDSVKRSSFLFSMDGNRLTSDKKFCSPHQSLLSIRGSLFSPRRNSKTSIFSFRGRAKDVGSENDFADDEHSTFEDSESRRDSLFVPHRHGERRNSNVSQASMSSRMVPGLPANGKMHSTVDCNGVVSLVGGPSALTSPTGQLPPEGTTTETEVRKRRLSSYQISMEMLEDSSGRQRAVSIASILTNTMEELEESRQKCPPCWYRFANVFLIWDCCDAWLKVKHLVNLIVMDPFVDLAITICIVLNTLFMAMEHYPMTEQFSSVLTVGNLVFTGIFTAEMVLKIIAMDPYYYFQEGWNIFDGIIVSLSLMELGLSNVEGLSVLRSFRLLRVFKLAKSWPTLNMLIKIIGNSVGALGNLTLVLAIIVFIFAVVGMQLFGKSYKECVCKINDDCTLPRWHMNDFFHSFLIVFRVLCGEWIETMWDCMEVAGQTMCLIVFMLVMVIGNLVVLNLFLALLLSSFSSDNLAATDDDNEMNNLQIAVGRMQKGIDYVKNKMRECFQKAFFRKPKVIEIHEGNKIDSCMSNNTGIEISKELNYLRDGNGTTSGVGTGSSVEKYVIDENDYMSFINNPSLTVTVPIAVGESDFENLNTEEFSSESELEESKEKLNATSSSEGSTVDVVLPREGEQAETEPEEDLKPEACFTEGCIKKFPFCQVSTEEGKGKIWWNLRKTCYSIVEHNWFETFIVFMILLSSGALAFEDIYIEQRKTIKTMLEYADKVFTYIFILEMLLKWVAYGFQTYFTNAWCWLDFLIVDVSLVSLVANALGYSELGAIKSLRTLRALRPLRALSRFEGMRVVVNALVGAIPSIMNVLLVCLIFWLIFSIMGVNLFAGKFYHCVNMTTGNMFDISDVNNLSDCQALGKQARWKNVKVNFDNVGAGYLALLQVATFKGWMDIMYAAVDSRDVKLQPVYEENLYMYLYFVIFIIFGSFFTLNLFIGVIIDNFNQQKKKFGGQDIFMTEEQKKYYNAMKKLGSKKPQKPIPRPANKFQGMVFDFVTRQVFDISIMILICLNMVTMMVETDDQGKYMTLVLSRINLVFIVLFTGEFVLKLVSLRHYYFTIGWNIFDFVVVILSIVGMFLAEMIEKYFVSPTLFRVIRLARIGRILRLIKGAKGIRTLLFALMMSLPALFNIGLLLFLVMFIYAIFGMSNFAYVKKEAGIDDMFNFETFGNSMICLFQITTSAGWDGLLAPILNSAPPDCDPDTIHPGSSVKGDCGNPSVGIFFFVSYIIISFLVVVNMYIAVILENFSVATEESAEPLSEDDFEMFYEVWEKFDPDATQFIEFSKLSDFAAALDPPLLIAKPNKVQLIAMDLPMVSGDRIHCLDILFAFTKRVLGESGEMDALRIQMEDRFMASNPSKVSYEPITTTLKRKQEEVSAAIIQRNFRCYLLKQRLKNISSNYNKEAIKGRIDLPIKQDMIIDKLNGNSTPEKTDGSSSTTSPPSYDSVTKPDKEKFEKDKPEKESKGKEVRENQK

Compound	IC50 (hSCN3A; [1]) [nM]	IC50 (hSCN9A; [2]) [nM]	also measured
Cc1cc(Nc2ccc(S(=O)(=O)Nc3nccs3)c(F)c2)n(-c2ccc(F)cc2Cl)n1 [Compound 182, 4-(1-(2-chloro-4-fluorophenyl)-3-methyl-1H-pyrazol-5-ylamino)-2-fluoro-N-(thiazol-2-yl)benzenesulfonamide]	< 2000	< 2000	–
O=S(=O)(Nc1nccs1)c1ccc(Nc2nccc(OCC3CCCCC3)n2)cc1 [Compound 81, 4-(4-(cyclohexylmethoxy)pyrimidin-2-ylamino)-N-(thiazol-2-yl)benzenesulfonamide]	< 2000	> 10000	–
Cc1nc(Nc2ccc(S(=O)(=O)Nc3nccs3)c(F)c2)sc1C(C)(C)C [Compound 13, 4-(5-tert-butyl-4-methylthiazol-2-ylamino)-2-fluoro-N-(thiazol-2-yl)benzenesulfonamide]	–	–	IC50 (hSCN3A; [3]): < 2000 nM; IC50 (hSCN9A; [3]): < 2000 nM
O=S(=O)(Nc1nccs1)c1ccc(Nc2cncc(C(c3ccccc3)c3ccccc3)n2)cc1 [Compound 92, 4-(6-benzhydrylpyrazin-2-ylamino)-N-(thiazol-2-yl)benzenesulfonamide]	< 2000	2000 to 10000	–
O=S(=O)(Nc1nccs1)c1ccc(Nc2cc(Cc3ccc(Cl)cc3)n[nH]2)cc1F [Compound 115, 4-(3-(4-chlorobenzyl)-1H-pyrazol-5-ylamino)-2-fluoro-N-(thiazol-2-yl)benzenesulfonamide]	< 2000	< 2000	–
O=S(=O)(Nc1nccs1)c1ccc(Nc2cc(CC(F)(F)F)nn2-c2ccccc2F)cc1F [Compound 204, 2-fluoro-4-(1-(2-fluorophenyl)-3-(2,2,2-trifluoroethyl)-1H-pyrazol-5-ylamino)-N-(thiazol-2-yl)benzenesulfonamide]	< 2000	< 2000	–
O=S(=O)(Nc1nccs1)c1cc(F)c(Nc2ccn(Cc3ccc(Cl)cc3)n2)cc1F [Compound 206, 4-(1-(4-chlorobenzyl)-1H-pyrazol-3-ylamino)-2,5-difluoro-N-(thiazol-2-yl)benzenesulfonamide]	< 2000	< 2000	–
COc1cc(Cl)ccc1-c1cc(Nc2ccc(S(=O)(=O)Nc3nccs3)c(F)c2)n(C)n1 [Compound 222, 4-(3-(4-chloro-2-methoxyphenyl)-1-methyl-1H-pyrazol-5-ylamino)-2-fluoro-N-(thiazol-2-yl)benzenesulfonamide]	< 2000	< 2000	–
CS(=O)(=O)c1ccc(Cc2csc(Nc3ccc(S(=O)(=O)Nc4nccs4)c(F)c3)n2)cc1 [Compound 4, 2-Fluoro-4-[4-(4-methanesulfonyl-benzyl)-thiazol-2-ylamino]-N-thiazol-2-yl-benzenesulfonamide]	–	–	IC50 (hSCN3A; [3]): < 2000 nM; IC50 (hSCN9A; [3]): 2000 to 10000 nM
CC(C)(C)c1csc(Nc2ccc(S(=O)(=O)Nc3nccs3)cn2)n1 [Compound 106, 6-(4-tert-butylthiazol-2-ylamino)-N-(thiazol-2-yl)pyridine-3-sulfonamide]	2000 to 10000	> 1000	–
O=S(=O)(Nc1nccs1)c1ccc(Nc2ccnn2-c2ccccc2)cc1 [Compound 151, 4-(1-phenyl-1H-pyrazol-5-ylamino)-N-(thiazol-2-yl)benzenesulfonamide]	< 2000	2000 to 10000	–
O=S(=O)(Nc1nccs1)c1ccc(Nc2cnn(Cc3ccc(Cl)cc3)c2)nc1 [Compound 228, 6-(1-(4-chlorobenzyl)-1H-pyrazol-4-ylamino)-N-(thiazol-2-yl)pyridine-3-sulfonamide]	< 2000	2000 to 10000	–
Cc1cc(Nc2ccc(S(=O)(=O)Nc3nccs3)c(Cl)c2)n(-c2ccccc2)n1 [Compound 161, 2-chloro-4-(3-methyl-1-phenyl-1H-pyrazol-5-ylamino)-N-(thiazol-2-yl)benzenesulfonamide]	< 2000	< 2000	–
Cc1cc(Nc2ccc(S(=O)(=O)Nc3nccs3)cc2)n(-c2ccccc2)n1 [Compound 20, 4-(3-methyl-1-phenyl-1H-pyrazol-5-ylamino)-N-(thiazol-2-yl)benzenesulfonamide]	–	–	IC50 (hSCN3A; [3]): < 2000 nM; IC50 (hSCN9A; [3]): 2000 to 10000 nM
Cc1nnc(Nc2ccc(S(=O)(=O)Nc3nccs3)cc2)c2ccccc12 [Compound 39, 4-(4-methylphthalazin-1-ylamino)-N-(thiazol-2-yl)benzenesulfonamide, reference compound]	–	–	IC50 (hSCN3A; [4]): > 1000 nM; IC50 (hSCN9A; [4]): > 3000 nM
O=S(=O)(Nc1nccs1)c1ccc(Nc2nccc(OCc3ccc(C(F)(F)F)cc3)n2)cc1 [Compound 55, N-(thiazol-2-yl)-4-(4-(4-(trifluoromethyl)benzyloxy)pyrimidin-2-ylamino)benzenesulfonamide]	< 2000	> 1000	–
CC(C)(C)c1cc(Nc2ccc(S(=O)(=O)Nc3nccs3)cc2)[nH]n1 [Compound 23, 4-(3-tert-butyl-1H-pyrazol-5-ylamino)-N-(thiazol-2-yl)benzenesulfonamide]	–	–	IC50 (hSCN3A; [3]): 2000 to 10000 nM; IC50 (hSCN9A; [3]): 2000 to 10000 nM

Compound	IC50 (hSCN3A; [1]) [nM]	IC50 (hSCN9A; [2]) [nM]	also measured
O=S(=O)(Nc1nccs1)c1ccc(Nc2nc(CNCc3ccc(C(F)(F)F)cc3)cs2)cc1 [Compound 71, N-(thiazol-2-yl)-4-(4-((4-(trifluoromethyl)benzylamino)methyl)thiazol-2-ylamino)benzenesulfonamide]	< 2000	2000 to 10000	–
Cc1cc(Nc2ccc(S(=O)(=O)Nc3ncc(C#N)s3)c(F)c2)n(-c2ccccc2)n1 [Compound 245, N-(5-cyanothiazol-2-yl)-2-fluoro-4-(3-methyl-1-phenyl-1H-pyrazol-5-ylamino)benzenesulfonamide]	2000 to 10000	> 1000	–
O=S(=O)(Nc1nccs1)c1ccc(Nc2nnc(Cc3ccc(C(F)(F)F)cc3)o2)cc1 [Compound 28, N-(thiazol-2-yl)-4-(5-(4-(trifluoromethyl)benzyl)-1,3,4-oxadiazol-2-ylamino)benzenesulfonamide]	–	–	IC50 (hSCN3A; [3]): < 2000 nM; IC50 (hSCN9A; [3]): > 10000 nM
CC(C)(C)c1csc(Nc2ccc(S(=O)(=O)Nc3nccs3)c(Cl)c2)n1 [Compound 10, 4-(4-Tert-butyl-thiazol-2-ylamino)-2-chloro-N-thiazol-2-yl-benzenesulfonamide]	–	–	IC50 (hSCN3A; [3]): < 2000 nM; IC50 (hSCN9A; [3]): 2000 to 10000 nM
CC(Oc1ccccc1)c1csc(Nc2ccc(S(=O)(=O)Nc3nccs3)cc2)n1 (centres unmarked) [Compound 63, 4-(4-(1-phenoxyethyl)thiazol-2-ylamino)-N-(thiazol-2-yl)benzenesulfonamide]	< 2000	2000 to 10000	–
COC(=O)c1sc(Nc2ccc(S(=O)(=O)Nc3nccs3)cc2)nc1C [Compound 77, methyl 4-methyl-2-(4-(N-thiazol-2-ylsulfamoyl)phenylamino)thiazole-5-carboxylate]	< 2000	> 3000	–
O=S(=O)(Nc1nccs1)c1ccc(Nc2cncc(Cc3cc(F)cc(F)c3)n2)cc1 [Compound 98, 4-(6-(3,5-difluorobenzyl)pyrazin-2-ylamino)-N-(thiazol-2-yl)benzenesulfonamide]	< 2000	2000 to 10000	–
CC(C)(Oc1ccc(Cl)cc1)c1csc(Nc2ccc(S(=O)(=O)Nc3nccs3)cc2)n1 [Compound 97, 4-(4-(2-(4-chlorophenoxy)propan-2-yl)thiazol-2-ylamino)-N-(thiazol-2-yl)benzenesulfonamide]	< 2000	> 1000	–
O=S(=O)(Nc1nccs1)c1ccc(Nc2nc(CN3CCC[C@H]3CN3CCCC3)cs2)cc1 [Compound 58, (S)-4-(4-((2-(pyrrolidin-1-ylmethyl)pyrrolidin-1-yl)methyl)thiazol-2-ylamino)-N-(thiazol-2-yl)benzenesulfonamide]	> 1000	2000 to 10000	–
COc1ccnc(Nc2ccc(S(=O)(=O)Nc3nccs3)cc2)n1 [Compound 85, 4-(4-methoxypyrimidin-2-ylamino)-N-(thiazol-2-yl)benzenesulfonamide]	> 1000	> 3000	–
Cn1nc(Cc2ccc(Cl)cc2)cc1Nc1ccc(S(=O)(=O)Nc2nccs2)cc1 [Compound 21, 4-(3-(4-Chlorobenzyl)-1-methyl-1H-pyrazol-5-ylamino)-N-(thiazol-2-yl)benzenesulfonamide]	–	–	IC50 (hSCN3A; [3]): < 2000 nM; IC50 (hSCN9A; [3]): < 2000 nM
CCN(CC)C(=O)Cc1cc(Nc2ccc(S(=O)(=O)Nc3nccs3)c(F)c2)n(-c2ccccc2)n1 [Compound 216, N,N-diethyl-2-(5-(3-fluoro-4-(N-thiazol-2-ylsulfamoyl)phenylamino)-1-phenyl-1H-pyrazol-3-yl)ethanamide]	> 1000	< 2000	–
O=S(=O)(Nc1ccccn1)c1ccc(Nc2nc(Cc3ccc(Cl)cc3)cs2)cc1 [Compound 103, 4-(4-(4-chlorobenzyl)thiazol-2-ylamino)-N-(pyridin-2-yl)benzenesulfonamide]	> 10000	> 1000	–
CC(C)(C)n1nc(Cc2ccc(Cl)cc2)cc1Nc1ccc(S(=O)(=O)Nc2ccccn2)cc1 [Compound 110, 4-(1-tert-butyl-3-(4-chlorobenzyl)-1H-pyrazol-5-ylamino)-N-(pyridin-2-yl)benzenesulfonamide]	< 2000	> 10000	–
O=S(=O)(Nc1nccs1)c1ccc(Nc2nnc(-c3ccccc3)c3ccccc23)cc1 [Compound 42, 4-(4-phenylphthalazin-1-ylamino)-N-(thiazol-2-yl)benzenesulfonamide, reference compound]	–	–	IC50 (hSCN3A; [4]): 2030 nM; IC50 (hSCN9A; [4]): > 3000 nM
Cn1c(Nc2ccc(S(=O)(=O)Nc3nccs3)cc2)nc2ccc(Cl)cc21 [Compound 101, 4-(6-chloro-1-methyl-1H-benzo[d]imidazol-2-ylamino)-N-(thiazol-2-yl)benzenesulfonamide]	< 2000	2000 to 10000	–
CC(C)(C)c1cc(Nc2ccc(S(=O)(=O)Nc3nccs3)cc2)no1 [Compound 18]	–	–	IC50 (hSCN3A; [3]): < 2000 nM; IC50 (hSCN9A; [3]): > 10000 nM
